Data taken from ChEMBL document CHEMBL3751808, “Gambogic acid induces apoptotic cell death in T98G glioma cells” (Bioorg Med Chem Lett, 2016).
The source made the active and inactive calls. The rule behind the calls is not given here.

What was measured:
T98G [1] = test: Antiproliferative activity against human T98G cells after 24 hrs by EZ-Tox assay; type: functional, cell-based
T98G [2] = test: Antiproliferative activity against human T98G cells assessed as cell viability after 72 hrs by MTT assay; type: functional, cell-based
T98G [3] = test: Induction of apoptosis in human T98G cells assessed as increase of ROS level at 400 nM after 8 hrs using DCFH-DA staining by FACS analysis (reference value: 2.4%); type: functional
T98G [4] = test: Induction of apoptosis in human T98G cells assessed as decrease in cell viability after 24 hrs using propidium iodide /Hoechst staining by FACS analysis; type: functional, cell-based
T98G [5] = test: Induction of apoptosis in human T98G cells assessed as decrease of Bcl-2 level at 200 to 400 nM after 10 to 24 hrs by Western blot analysis; type: functional, cell-based
T98G [6] = test: Induction of apoptosis in human T98G cells assessed as increase of ROS level at 400 nM after 8 hrs using DCFH-DA staining by FACS analysis in presence of NAC (reference value: 2.4%); type: functional
T98G [7] = test: Induction of apoptosis in human T98G cells assessed as increase of cleaved PARP level at 200 to 400 nM after 10 to 24 hrs by Western blot analysis; type: functional, cell-based
T98G [8] = test: Induction of apoptosis in human T98G cells assessed as late-stage apoptotic cells at 400 nM after 24 hrs using annexin V/propidium iodide staining by FACS analysis; type: functional
T98G [9] = test: Induction of apoptosis in human T98G cells assessed as decrease in cell viability at 400 nM after 24 hrs using propidium iodide /Hoechst staining by FACS analysis in presence of NAC (reference value: 2.9%); type: functional
T98G [10] = test: Induction of apoptosis in human T98G cells assessed as increase of Bax level at 200 to 400 nM after 10 to 24 hrs by Western blot analysis; type: functional, cell-based
T98G [11] = test: Induction of apoptosis in human T98G cells assessed as increase of ROS level at 200 nM after 8 hrs using DCFH-DA staining by FACS analysis in presence of NAC (reference value: 2.4%); type: functional
T98G [12] = test: Induction of apoptosis in human T98G cells assessed as decrease in cell viability at 400 nM after 24 hrs using propidium iodide /Hoechst staining by FACS analysis (reference value: 2.9%); type: functional
T98G [13] = test: Induction of apoptosis in human T98G cells assessed as necrotic cells at 400 nM after 24 hrs using annexin V/propidium iodide staining by FACS analysis; type: functional
T98G [14] = test: Induction of apoptosis in human T98G cells assessed as increase of cytochrome-c protein level at 200 to 400 nM after 10 to 24 hrs by Western blot analysis; type: functional, cell-based
T98G [15] = test: Induction of apoptosis in human T98G cells assessed as increase of ROS level at 200 to 400 nM after 10 hrs using DCFH-DA staining by fluorescence microscopic analysis in presence of NAC; type: functional, cell-based
T98G [16] = test: Induction of apoptosis in human T98G cells assessed as necrotic cells at 200 nM after 24 hrs using annexin V/propidium iodide staining by FACS analysis; type: functional
T98G [17] = test: Induction of apoptosis in human T98G cells assessed as increase of ROS level at 200 nM after 8 hrs using DCFH-DA staining by FACS analysis (reference value: 2.4%); type: functional
T98G [18] = test: Induction of apoptosis in human T98G cells assessed as increase of cleaved caspase-3 level at 200 to 400 nM after 10 to 24 hrs by Western blot analysis; type: functional, cell-based
T98G [19] = test: Induction of apoptosis in human T98G cells assessed as late-stage apoptotic cells at 200 nM after 24 hrs using annexin V/propidium iodide staining by FACS analysis; type: functional
T98G [20] = test: Induction of apoptosis in human T98G cells assessed as decrease in cell viability at 200 nM after 24 hrs using propidium iodide /Hoechst staining by FACS analysis (reference value: 2.9%); type: functional
T98G [21] = test: Induction of apoptosis in human T98G cells assessed as increase of AIF level at 200 to 400 nM after 10 to 24 hrs by Western blot analysis; type: functional, cell-based
T98G [22] = test: Induction of apoptosis in human T98G cells assessed as increase of cleaved caspase-8 level at 200 to 400 nM after 10 to 24 hrs by Western blot analysis; type: functional, cell-based
T98G [23] = test: Induction of apoptosis in human T98G cells assessed as decrease in cell viability at 200 nM after 24 hrs using propidium iodide /Hoechst staining by FACS analysis in presence of NAC (reference value: 2.9%); type: functional
T98G [24] = test: Induction of apoptosis in human T98G cells assessed as early-stage apoptotic cells at 400 nM after 24 hrs using annexin V/propidium iodide staining by FACS analysis; type: functional
T98G [25] = test: Induction of apoptosis in human T98G cells assessed as increase of cleaved caspase-9 level at 200 to 400 nM after 10 to 24 hrs by Western blot analysis; type: functional, cell-based
T98G [26] = test: Induction of apoptosis in human T98G cells assessed as increase of ROS level at 200 to 400 nM after 10 hrs using DCFH-DA staining by fluorescence microscopic analysis; type: functional, cell-based
T98G [27] = test: Induction of apoptosis in human T98G cells assessed as early-stage apoptotic cells at 200 nM after 24 hrs using annexin V/propidium iodide staining by FACS analysis; type: functional

COc1cc(/C=C/C(=O)CC(=O)/C=C/c2ccc(O)c(OC)c2)ccc1O [CURCUMIN]
IC50 (T98G [1]): 10 µM | IC50 (T98G [2]): 25 µM

COc1cccc2c1C(=O)c1c(O)c3c(c(O)c1C2=O)C[C@@](O)(C(=O)CO)C[C@@H]3O[C@H]1C[C@H](N)[C@H](O)[C@H](C)O1 [DOXORUBICIN]
IC50 (T98G [1]): 0.5 µM

O=C(O[C@@H]1Cc2c(O)cc(O)cc2O[C@@H]1c1cc(O)c(O)c(O)c1)c1cc(O)c(O)c(O)c1 [EPIGALOCATECHIN GALLATE]
IC50 (T98G [1]): 166 µM

CC(C)=CCC[C@]1(C)C=Cc2c(O)c3c(c(CC=C(C)C)c2O1)O[C@]12C(=C[C@@H]4C[C@H]1C(C)(C)O[C@@]2(C/C=C(/C)C(=O)O)C4=O)C3=O [GAMBOGIC ACID]
Activity (T98G [3]): 36.5% | Activity (T98G [4]): Dose-dependent effect | Activity (T98G [5]): Active | Activity (T98G [6]): 2.6% | Activity (T98G [7]): Active | Activity (T98G [8]): 13.7% | Activity (T98G [9]): 6% | Activity (T98G [10]): Active | Activity (T98G [11]): 2.8% | Activity (T98G [1]): Dose-dependent effect | IC50 (T98G [1]): ≤ 0.3 µM | Activity (T98G [12]): 76.6% | Activity (T98G [13]): 27.6% | Activity (T98G [14]): Active | Activity (T98G [15]): inactive | Activity (T98G [16]): 4% | Activity (T98G [17]): 38.5% | Activity (T98G [18]): Active | Activity (T98G [19]): 8.57% | Activity (T98G [20]): 33.4% | Activity (T98G [21]): Active | Activity (T98G [22]): Active | Activity (T98G [23]): 5.8% | Activity (T98G [24]): 12.6% | Activity (T98G [25]): Active | Activity (T98G [26]): Active | Activity (T98G [27]): 32.3%
